Reference: US20100179103A1 (priority 2008, published 2010)

Tests used:
[1] = system: carrageenan paw inflammation; experiment: mouse carrageenan paw inflammation (paw edema) model; type: in vivo; conditions: 3 hours; p.o. gavage; curcumin 30 mg/kg, CDC 30 mg/kg, indomethacin 5 mg/kg; male CD-1 mice
[2] = in vivo; cited from earlier work

Row | SMILES | swelling (edema: left paw thickness minus right paw thickness) [1] | Tmax [2]
1 | COc1ccc2c(c1)c(CC(=O)O)c(C)n2C(=O)c1ccc(Cl)cc1 [indomethacin, Indomethacin] | 0.73 mm | 
2 | COc1cc(/C=C/C(=O)CC(=O)/C=C/c2ccc(O)c(OC)c2)ccc1O [curcumin, Curcumin] | 0.66 mm | 3 to 5 min
